The subject of assay [1] is passive cutaneous anaphylaxis reaction. The assay is described as follows: Passive cutaneous anaphylaxis reaction. Format: in vivo, rat. The conditions noted are these: for % inhibition: reduction of coloured surface; for ED50: Rattus norvegicus. As to the method:
The method used is that described by MOTA I in "Immunology" 1964, 7, Page 681. This method consists of sensitizing rats by 4 intradermal injections of 0.1 ml rat antiserum. The antiserum is obtained from animals treated with a mixture of ovalbumin and bordetella pertussis. 72 hours after sensitization, the product to be studied and 1 ml per rat (IV) of a 0.25% solution of Evans blue+5 mg/ml ovalbumin in an isotonic aqueous solution of […] sodium chloride are administered to the animals intravenously or intraperitoneally. Thirty minutes after this last injection, the animals are killed and one measures the surface area of each bruise corresponding to the point of injection of the antiserum. The results are expressed as a percentage reduction of the coloured surface. The results are given in Table III hereafter in which the results obtained with disodium cromoglycate (used intravenously) are also shown by way of comparison.

In assay [2] the test system is histamine. Description: Action with regard to a LD100 of histamine (protection from mortality). It counts as in vivo, guinea pig. As to conditions: for % protection: mortality caused by histamine, 1 hour. As to the method: Male tricolour guinea pigs weighing 400 to 500 g receive the product studied intraperitoneally. 30 minutes later, 800 γ/kg histamine, or the LD 100 in physiological solution are injected intraveinously.
The animals are kept under observation for 1 hour.

Assay [3] has as its system histamine. Description: Histamine bronchoconstrictor aerosol (antihistamine activity). Format: in vivo, guinea pig. The conditions noted are these: for % protection: animals without apneic crisis within 5 minutes. As to the method: Batches of 6 guinea pigs weighing from 200 to 250 g are exposed to an aerosol of 0.2% histamine in an aqueous solution, in a small chamber for 5 minutes. Two aerosols are used at an interval of 4 hours. The product tested is administered intraperitoneally 30 minutes before the use of the second aerosol.

Usually % inhibition stands for the drop in the measured response relative to a control, in per cent. High values mean a strong effect, low ones a weak effect. One may read the ED50 as the dose at which the effect has come halfway, by size or by number of responders. The low end stands for greater potency, the high end for weaker potency.

On to `O=C(O)c1cc(=O)c2c(OCC(O)COc3cccc4oc(C(=O)O)cc(=O)c34)cccc2o1` [Disodium cromoglycate, disodium cromoglycate], for which the “Mean Surface area” value in assay [1] (IV, 0.15 mg/kg, control 31.77 ± 3.16) is reported as 27.86 ± 3.82 mm^2; in assay [1] (IV, 0.31 mg/kg, control 31.77 ± 3.16), 30.5 ± 2.59 mm^2; in assay [1] (IV, 0.625 mg/kg, control 72.46 ± 4.37), 35.42 ± 5.02 mm^2; in assay [1] (IV, 1.25 mg/kg, control 31.77 ± 3.16), 2.30 ± 1.07 mm^2; in assay [1] (IV, 2.5 mg/kg, control 31.77 ± 3.16) it was 0.23 ± 0.23 mm^2. Moreover, the “% inhibition” value in assay [1] (IV, 0.15 mg/kg, T ns) is on record as 12%; in assay [1] (IV, 0.31 mg/kg, T ns), 4%; in assay [1] (IV, 0.625 mg/kg, T ***), 51%; in assay [1] (IV, 1.25 mg/kg, T ***), 93%; in assay [1] (IV, 2.5 mg/kg, T ***) it was 99%. For the same molecule, in assay [1] (iv), the 50% effect level (ED50) was put at a dose of 0.64 mg/kg.
On to `CN1CCN(C2=Nc3ccccc3Sc3ncccc32)CC1` [Example 2, 5-(1'-methyl-4'-piperazinyl)pyrido[2,3-b][1,5]benzothiazepine], for which the “% protection” value in the assay on histamine [2] (0.062 mg/kg intraperitoneally) was determined as 0%; in the assay on histamine [2] (0.125 mg/kg intraperitoneally) it was 60%; in the assay on histamine [2] (0.250 mg/kg intraperitoneally), 100%; in the assay on histamine [3] (0.062 mg/kg intraperitoneally) it was 17%; in the assay with histamine [3] (0.125 mg/kg intraperitoneally), 33%; with histamine [3] (0.250 mg/kg intraperitoneally), 50%. Besides, in the assay on histamine [3] (0.500 mg/kg intraperitoneally), the “% protection” value came out at 100%. Further, the ED50 worked out at 0.12 mg/kg in the assay with histamine [2] (Cavia porcellus, ip, intraperitoneally, 800 γ/kg histamine (LD 100) intravenously); 0.57 mg/kg in assay [1] (ip, I.P.); 0.155 mg/kg with histamine [3] (Cavia porcellus, ip, intraperitoneally, 0.2% histamine aerosol). The “Mean Surface area” value turned out to be 54.4 ± 3.26 mm^2 in assay [1] (I.P., 0.125 mg/kg, control 66.7 ± 2.62); 46.3 ± 3.78 mm^2 in assay [1] (I.P., 0.5 mg/kg, control 90.8 ± 5.92); 25.1 ± 3.45 mm^2 in assay [1] (I.P., 1 mg/kg, control 66.7 ± 2.62). In addition, the “% inhibition” value came out at 18% in assay [1] (I.P., 0.125 mg/kg, T **); 49% in assay [1] (I.P., 0.5 mg/kg, T ***); 62% in assay [1] (I.P., 1 mg/kg, T ***).

Source of the values: patent US4163785A, “Benzothiazepine compounds and compositions” (Hexachimie, priority 1978, dated 1979).
